Laboratory results as given in patent publication US7223759B2, “Antibacterial 3,5-diaminopiperidine-substituted aromatic and heteroaromatic compounds” (Anadys Pharmaceuticals, Inc., priority 2003, dated 2007).
Read-outs that look alike come from different tables or passages of the source.

System: Escherichia coli (ATCC25922) or Staphylococcus aureus (ATCC25923)
Assay: Antibacterial MIC, microdilution method in Mueller-Hinton medium
Type: cell-based
Settings: for MIC: Escherichia coli, 18 h, read-out: Potency (MIC)
Summary of the method: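 Two-fold serial dilutions from 64 to 0.5 μg/ml, in duplicate, by broth microdilution in Mueller-Hinton medium (NCCLS M7-A5). MIC taken as the lowest concentration preventing visible growth after 18 h at 35° C.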

[1] = MIC in E. coli or S. aureus, two-fold serial dilutions 64 to 0.5 μg/ml in duplicate, 18 hours of incubation at 35° C.

Row | Molecule | MIC [µg/mL] | further results
1 | Cc1csc(Nc2nc(N3C[C@H](N)C[C@H](N)C3)nc(N3C[C@H](N)C[C@H](N)C3)n2)n1.Cl [N-(4-methyl-thiazol-2-yl)-4,6-Bis-((3R,5S)-3,5-diamino-piperidin-1-yl)-[1,3,5]triazine-2-amine] |  | MIC [1]: > 64 µg/mL
2 | NC[C@@H]1C[C@H](N)CN1c1nc(Nc2ccc(NC(=O)c3ccc(Cl)cc3O)c(O)c2)nc(N2C[C@H](N)C[C@H](N)C2)n1 [N-{4-[4-((2S,4S)-4-Amino-2-aminomethyl-pyrrolidin-1-yl)-6-((3R,5S)-3,5-diamino-piperidin-1-yl)-[1,3,5]triazin-2-ylamino]-2-hydroxy-phenyl}-4-chloro-2-hydroxy-benzamide] | < 16 | 
3 | N[C@@H]1C[C@H](N)CN(c2nc(Nc3ccc4c(c3)-c3ccccc3C4=O)nc(N3C[C@@H](N)C[C@@H](O)C3)n2)C1 [3-[4-((3S,5R)-3-Amino-5-hydroxy-piperidin-1-yl)-6-((3S,5R)-3,5-diamino-piperidin-1-yl)-[1,3,5]triazin-2-ylamino]-fluoren-9-one] | < 16 | 
4 | NC[C@@H]1CN(c2nc(Nc3ccc(C(=O)Oc4ccccc4)c(O)c3)nc(N3C[C@H](N)C[C@H](N)C3)n2)CC[C@@H]1O [4-[4-((3R,4S)-3-Aminomethyl-4-hydroxy-piperidin-1-yl)-6-((3R,5S)-3,5-diamino-piperidin-1-yl)-[1,3,5]triazin-2-ylamino]-2-hydroxy-benzoic acidphenylester] |  | Potency (MIC) [1]: − (− means MIC>64 μg/ml in E. coli or S. aureus)
5 | CN(Cc1cccc2ccccc12)c1nc(N2CCCCC2)nc(N2CCCCC2)n1.Cl [N,N-Methyl-naphthalen-1-ylmethyl-4,6-Bis-((3R,5S)-3,5-diamino-piperidin-1-yl)-[1,3,5]triazine-2-amine] |  | MIC [1]: > 64 µg/mL
6 | N[C@@H]1C[C@H](N)CN(c2nc(Nc3ccc(NC(=O)c4ncccc4O)cc3)nc(N3C[C@H](N)C[C@H](N)C3)n2)C1 [N-{4-[(3-hydroxy-pyridine-2-carbonyl)-amino]-phenyl}-4,6-Bis-((3R,5S)-3,5-diamino-piperidin-1-yl)-[1,3,5]triazine-2-amine] | < 64 | 
7 | COc1ccc(-c2ccccc2)cc1Nc1nc(N2C[C@H](N)C[C@H](N)C2)nc(N2C[C@H](N)C[C@H](N)C2)n1 [N-(4-methoxy-biphenyl-3-yl)-4,6-Bis-((3R,5S)-3,5-0diamino-piperidin-1-yl)-[1,3,5]triazine-2-amine] |  | MIC [1]: < 64 µg/mL
8 | Cc1ccc2nc(-c3ccc(Nc4nc(N5C[C@H](N)C[C@H](N)C5)nc(N5C[C@H](N)C[C@H](N)C5)n4)cc3)sc2c1 [N-[4-(6-methyl-benzothiazol-2-yl)-phenyl]-4,6-Bis-((3R,5S)-3,5-diamino-piperidin-1-yl)-[1,3,5]triazine-2-amine] | < 16 | 
9 | N[C@@H]1C[C@H](N)CN(c2nc(Nc3ccc(C(=O)CC(=O)Nc4cccc(SC(F)(F)F)c4)cc3)nc(N3C[C@H](N)C[C@H](N)C3)n2)C1 [N-{4-[2-(3-trifluoromethylsulfanyl-phenylcarbamoyl)-acetyl]-phenyl}-4,6-Bis-((3R,5S)-3,5-diamino-piperidin-1-yl)-[1,3,5]triazine-2-amine] | < 16 | 
10 | NC[C@@H]1CN(c2nc(Nc3ccc(S(=O)(=O)Nc4ccc5cn[nH]c5c4)cc3)nc(N3C[C@H](N)C[C@H](N)C3)n2)CC[C@@H]1O [4-[4-((3R,4S)-3-Aminomethyl-4-hydroxy-piperidin-1-yl)-6-((3RE,5S)-3,5-diamino-piperidin-1-yl)-[1,3,5]triazin-2-ylamino]-N-(1H-indazol-6-yl)-benzenesulfonamide] |  | Potency (MIC) [1]: − (− means MIC>64 μg/ml in E. coli or S. aureus)
11 | Cc1ccc(S(=O)(=O)N(Cc2ccccc2)c2ccc(Nc3nc(N4C[C@H](N)C[C@H](N)C4)nc(N4C[C@H](O)C[C@@H](O)C4)n3)cc2O)cc1 [N-Benzyl-N-{4-[4-((3R,5S)-3,5-diamino-piperidin-1-yl)-6-((3R,5R)-3,5-dihydroxy-piperidin-1-yl)-[1,3,5]triazin-2-ylamino]-2-hydroxy-phenyl}-4-methyl-benzenesulfonamide] | < 64 | 
12 | N[C@@H]1C[C@H](N)CN(c2nc(NNc3cccc(F)c3)nc(N3C[C@H](N)C[C@H](N)C3)n2)C1 [N-(4,6-Bis-((3R,5S)-3,5-diamino-piperidin-1-yl)-[1,3,5]triazin-2-yl)-N′-(3-Fluoro-phenyl)-hydrazine] | > 64 | 
13 | 7-[4-((2S,4S)-4-Amino-2-aminomethyl-pyrrolidin-11-yl)-6-((3R,5S)-3,5-diamino-piperidin-1-yl)-[1,3,5]triazin-2-ylamino]-4-methyl-chromen-2-one |  | Potency (MIC) [1]: − (− means MIC>64 μg/ml in E. coli or S. aureus)
14 | N[C@@H]1C[C@H](N)CN(c2nc(Nc3ccc(Nc4ccccc4)cc3)nc(N3C[C@H](N)C[C@H](N)C3)n2)C1 [N-(4-phenylamino-phenyl)-4,6-Bis((3R,5S)-3,5-diamino-piperidin-1-yl)-[1,3,5]triazine-2-amine] |  | MIC [1]: < 64 µg/mL
15 | Cl.N[C@@H]1C[C@H](N)CN(c2nc(Nc3c[nH]c(=O)[nH]c3=O)nc(N3C[C@H](N)C[C@H](N)C3)n2)C1 [N-(2,4-dioxo-1,2,3,4-tetrahydro-pyrimidin-5-yl)-4,6-Bis-((3R,5S)-3,5-diamino-piperidin-1-yl)-[1,3,5]triazine-2-amine] |  | MIC [1]: < 64 µg/mL
16 | N[C@@H]1C[C@H](N)CN(c2nc(Nc3ccc4c(c3)Cc3ccccc3-4)nc(N3C[C@H](N)C[C@H](N)C3)n2)C1 [N-(9H-fluoren-2-yl)-4,6-Bis-((3R,5S)-3,5-diamino-piperidin-1-yl)-[1,3,5]triazine-2-amine] | < 16 | 
17 | NC[C@@H]1C[C@@H](O)CN1c1nc(Nc2ccc(C(=O)CC(=O)Nc3ccc(SC(F)(F)F)cc3)cc2)nc(N2C[C@H](N)C[C@H](N)C2)n1 [3-{4-[4-((2S,4RE)-2-Aminomethyl-4-hydroxy-pyrrolidin-1-yl)-6-((3R,5S)-3,5-diamino-piperidin-1-yl)-[1,3,5]triazin-2-ylamino]-phenyl}-3-oxo-N-(4-trifluoromethylsulfanyl-phenyl)-propionamide] |  | Potency (MIC) [1]: ++ (++ means MIC<16 μg/ml in E. coli or S. aureus)
18 | NC[C@@H]1C[C@@H](O)CN1c1nc(Nc2ccc(NC(=O)c3ccc4ccccc4c3O)cc2)nc(N2C[C@H](N)C[C@H](N)C2)n1 [1-Hydroxy-naphthalene-2-carboxylicacid {4-[4-((2S,4R)-2-aminomethyl-4-hydroxy-pyrrolidin-1-yl)-6-((3R,5S)-3,5-diamino-piperidin-1-yl)-[1,3,5]triazin-2-ylamino]-phenyl}-amide] | < 64 | 
19 | C#Cc1cccc(Nc2nc(N3CCCCC3)nc(N3CCCCC3)n2)c1.Cl [N-(3-ethylnyl-phenyl)-4,6-Bis-((3R,5S)-3,5-diamino-piperidin-1-yl)-[1,3,5]triazine-2-amine] |  | MIC [1]: > 64 µg/mL
20 | Nc1ccc(Nc2nc(N3C[C@H](N)C[C@H](N)C3)nc(N3C[C@H](N)C[C@H](N)C3)n2)cc1OCc1ccccc1 [N-(4-amino-3-benzyloxy-phenyl)-4,6-Bis-((3R,5S)-3,5-diamino-piperidin-1-yl)-[1,3,5]triazine-2-amine] | > 64 | 
21 | N[C@@H]1C[C@H](N)CN(c2nc(Nc3ccc(NC(=O)c4cc(OC(F)(F)F)ccc4O)c(O)c3)nc(N3C[C@H](N)C[C@H](N)C3)n2)C1 [N-[3-hydroxy-4-(2-hydroxy-5-trifluoromethoxy-benzoylamino)-phenyl]-4,6-Bis-((3R,5S)-3,5-diamino-piperidin-1-yl)-[1,3,5]triazine-2-amine] | < 16 | 
22 | COc1ccc(C(=O)Nc2ccc(Nc3nc(N4C[C@H](N)C[C@H](N)C4)nc(N4C[C@H](N)C[C@H](N)C4)n3)cc2)c(O)c1 [N-[4-(2-hydroxy-4-methoxy-benzoylamino)-phenyl]-4,6-Bis-((3R,5S)-3,5-diamino-piperidin-1-yl)-[1,3,5]triazine-2-amine] | > 64 | 
23 | N[C@@H]1CC(c2nc(NCc3ccco3)nc(N3C[C@H](N)C[C@H](N)C3)n2)C[C@H](N)C1 (stereo partly drawn) [N-furan-2-ylmethyl-44,6-Bis-((3R,5S)-3,5-diamino-piperidin-1-yl)-[1,3,5]triazine-2-amine] |  | MIC [1]: > 64 µg/mL
24 | carboxylic acid {4-[4-((2S,4S)-4-amino-2-hydroxymethyl-pyrrolidin-1-yl)-6-((3R,5S)-3,5-diamino-piperidin-1-yl)-[1,3,5]triazine-2-ylamino]-phenyl}-amide |  | Potency (MIC) [1]: ++ (++ means MIC<16 μg/ml in E. coli or S. aureus)
25 | Cc1cc(Nc2nc(N3C[C@H](N)C[C@H](N)C3)nc(N3C[C@H](N)C[C@H](N)C3)n2)ccc1NC(=O)c1cccc(C)c1O [N-[4-(2-hydroxy-3-methyl-benzoylamino)-3-methyl-phenyl]-4,6-Bis-((3R,5S)-3,5-diamino-piperidin-1-yl)-[1,3,5]triazine-2-amine] | < 64 | 
26 | N[C@@H]1C[C@H](N)CN(c2nc(Nc3cccc(NC(=O)c4ccc(Cl)cc4O)c3)nc(N3C[C@H](N)C[C@H](N)C3)n2)C1 [N-[3-(4-chloro-2-hydroxy-benzoylamino)-phenyl]-4,6-Bis-((3R,5S)-3,5-diamino-piperidin-1-yl)-[1,3,5]triazine-2-amine] | < 16 | 
27 | COc1ccc(NC(=O)c2cccc(O)c2O)c(Nc2nc(N3C[C@H](N)C[C@H](N)C3)nc(N3C[C@H](N)C[C@H](N)C3)n2)c1 [N-[2-(2,3-dihydroxy-benzoylamino)-5-methoxy-phenyl]-4,6-Bis-((3R,5S)-3,5-diamino-piperidin-1-yl)-[1,3,5]triazine-2-amine] | > 64 | 
28 | Cc1ccc(S(=O)(=O)Nc2ccccc2Nc2nc(N3C[C@H](N)C[C@H](N)C3)nc(N3C[C@H](N)C[C@H](N)C3)n2)cc1 [N-[2-(toluene-4-sulfonylamino)-phenyl]-4,6-Bis-((3R,5S)-3,5-diamino-piperidin-1-yl)-[1,3,5]triazine-2-amine] | > 64 | 
29 | Cl.NC(=O)c1ccc(Nc2nc(N3C[C@H](N)C[C@H](N)C3)nc(N3C[C@H](N)C[C@H](N)C3)n2)nc1 [N-(5-carbamoyl-pyridin-2-yl)-4,6-Bis-((3R,5S)-3,5-diamino-piperidin-1-yl)-[1,3,5]triazine-2-amine] |  | MIC [1]: > 64 µg/mL
